Assays:
[1] = tested on: ARID1A mutated ovarian clear cell carcinoma; conditions: mice with ARID1A mutated ovarian clear cell carcinoma; cited from earlier work
[2] = tested on: DNMT1 protein; assay: DNMT1 immunoblot in ovarian cancer cell lines; type: cell-based, human; conditions: Day 7
Protocol: (§1) Cells were cultured in T75 dishes (Greiner, 658170) to form a monolayer at 80% confluency. Combination cells were treated with 500 nM 5-azacytidine (Sigma-Aldrich) once a day for 3 days or PBS once a day for 3 days. Cells were passaged on the fourth day and split into 2 flasks to be treated with Nexturastat (StarWise, LLC) or DMSO for vehicle control at the desired dose based on the cell line for the following 3 days. On the first day of Nexturastat treatment, one flask from each treatment group was stimulated with 250 ng/mL IFNγ (Peprotech, 300-02). For isogeneic ID8 murine cell lines, on the first day of HDACi treatment cell were treated with 250 ng/mL IFNγ (Peprotech, 315-05). On the seventh day, cell pellets were collected for Western Blot or flow cytometry analysis. For cycloheximide experiments, cells were treated on the seventh day of the experiment for 0, 4 or 8 hours with 10 μM cycloheximide (Sigma, C4859).
(§2) Isolated cell pellets were lysed in RIPA buffer (Pierce, 89900) with 1X protease and phosphatase inhibitor (Pierce, A32961). […] Protein concentration was determined using a Pierce BCA Protein Assay Kit (Thermo Fisher Scientific, 23225) according to the manufacturer’s protocol. […] Bands were detected using Azure Biosystems (Dublin, California, USA) Imaging System c600. […]

[3] = tested on: Kuramochi; assay: qRT-PCR of interferon stimulated genes and cytokines; type: cell-based, human; conditions: Day 7, seven genes
Protocol: (§3) Cells were cultured in T75 dishes to form a monolayer at 80% confluency. Combination cells were treated with 500 nM 5-azacytidine or PBS for 3 days. Cells were passaged on the fourth day and split into 2 flasks to be treated with Nexturastat or vehicle at the desired dose based on the cell line for the following 3 days. On the last day of HDACi treatment, one flask from each treatment group was stimulated with 250 ng/mL IFNγ (Peprotech, 300-02) for 4 hours. For isogeneic ID8 murine cell lines, cell were stimulated with 250 ng/mL […] (Peprotech, 315-05) for 4 hours. On the seventh day cell pellets were collected for qPCR analysis.
(§4) Total RNA was extracted using the TRIzol method (Life Technologies). RNA concentration was determined using the Thermo Scientific NanoDrop One machine and software (Thermo Scientific, 840274100PR2). One microgram total RNA was DNAse I (Thermo Scientific) treated and used to generate cDNA with the Applied Biosystems High-Capacity cDNA Reverse Transcriptase Kit (Applied Biosystems, 4368814). All RT-qPCRs were run on the Applied Biosystems Quantstudio3 Real-Time PCR System, 96-well plate reader (Applied Biosystems, A28137) and using TaqMan assay Gene Expression Array (Thermo Fisher Scientific, 4331182) in human for OASL, IFI44L, IFNb1, CXCL10, CCL2, CCL5, IFI27, CD247, DNMT1, DNMT3a, DNMT3b and in mouse (Thermo Fisher Scientific, 4331182) for OASL, IFI44L, IFNb1, CXCL10, CCL2, CCL5, IFI27, and CD247. TBP was used as a housekeeping gene for both human and murine cell lines. The ΔΔCt method was used to calculate relative expression levels. Reverse transcriptase negative cDNA synthesis reaction was performed on at least one sample per 96-well plate along with a water control to ensure accurate results.

[4] = tested on: SKOV3 CR; assay: as above; type: cell-based, human; conditions: Day 7
Protocol: as §3, §4

[5] = tested on: Hey; assay: as above; type: cell-based, human; conditions: Day 7, 500 nM Aza then NextA, fold change relative to Mock
Protocol: as §3, §4

[6] = tested on: TykNu; assay: as above; type: cell-based, human; conditions: Day 7, seven genes
Protocol: as §3, §4

[7] = tested on: A2780; assay: as above; type: cell-based, human; conditions: A2780, Day 7, 500 nM Aza then NextA, fold change relative to Mock
Protocol: as §3, §4

[8] = tested on: ID8 Trp53−/− ovarian cancer; assay: ID8 Trp53−/− mouse model of ovarian cancer, survival and tumor burden; conditions: first experiment; for survival: i.p. Aza 0.5 mg/kg, NextA 25 mg/kg, 5 days a week, combination on alternating weeks, vs Mock
Protocol: For in vivo tumor studies, all mice were given intraperitoneal injections with 5.0 ×10^6 p53−/− isogeneic murine ovarian cancer cells suspended in 500 uL 1x phosphate buffered saline (PBS) (Corning 21-040-CV). Treatment began 1 week after tumor inoculation and ended when the tumor burden was deemed excessive for the animal. Mice were injected with 5-azacytidine and Nexturastat 5 days a week in alternating treatment (see treatment schemas in Figs. 5 and 6). All mice were given intraperitoneal injections of epigenetic drugs or their appropriate controls. Mice in the 5-azacytidine group were given 0.5 mg/kg of 5-azacytidine dissolved in 100 ul of PBS solution daily. Mice in the NexturastatA group were given 25 mg/kg of Nexturastat A dissolved in 100 ul PEG vehicle solution(70% Polyethylene glycol, 10% Tween80, 20% absolute ethanol) daily. Mice in the NextA+Aza group were given 5-azacytidine and NexturastatA on an alternating weekly basis. Mice in the control group were given a drug vehicle comprised of 70% Polyethylene glycol (Sigma 764752), 10% Tween 80 (Sigma P5188), and 20% 200 proof absolute ethanol as per the manufacturer guidelines as a vehicle control for Nexturastat or PBS as a vehicle control for 5-azacytidine.
Tumor burden was assessed via measurement of body weight, amount of ascites drained from the mice at the point where they had gained 20 to 30% of their body weight, or abdominal circumference measurements.

[9] = tested on: MOSE ID8 Trp53−/−; assay: qRT-PCR of interferon stimulated genes and cytokines; type: cell-based, mouse; conditions: Day 7, 500 nM Aza then NextA, fold change relative to Mock
Protocol: as §3
Total RNA was extracted using the TRIzol method (Life Technologies). RNA concentration was determined using the Thermo Scientific NanoDrop One machine and software (Thermo Scientific, 840274100PR2). […] All RT-qPCRs were run on the Applied Biosystems Quantstudio3 Real-Time PCR System, 96-well plate reader (Applied Biosystems, A28137) and using TaqMan assay Gene Expression Array (Thermo Fisher Scientific, 4331182) in human for OASL, IFI44L, IFNb1, CXCL10, CCL2, CCL5, IFI27, CD247, DNMT1, DNMT3a, DNMT3b and in mouse (Thermo Fisher Scientific, 4331182) for OASL, IFI44L, IFNb1, CXCL10, CCL2, CCL5, IFI27, and CD247. […]

[10] = tested on: tumor microenvironment immune cells; assay: Immunophenotyping of ascites in ID8 Trp53−/− mouse model; type: in vivo; conditions: first experiment, Week 7
Protocol: Ascites and murine spleens were collected from 5 to 10 mice per group and incubated in ACK buffer (Thermo Fisher Scientific) to lyse red blood cells for 10 min and then washed. Ascites from each mouse were individually prepared for flow cytometry. The single cells collected were cultured for 4 hours in RPMI with 10% FBS and in the presence of 2 ul/ml Cell Stimulation Cocktail plus protein transport inhibitors (eBioscience, 00497503). Cells were then washed and stained for the T cell panel including: Live/Dead (Thermo Fisher Scientific, L34965), CD45 (Biolegend, 103132), CD3 (Biolegend, 152316), CD4 (Biolegend, 100453), CD8 (Biolegend, 100766), NK1.1 (Biolegend, 108753) CD 279 (Biolegend, 135205). After incubation, the cells were permeabilized (FoxP3 staining buffers; BD Bioscience, 563486). Intracellular staining was performed for FoxP3 (Biolegend, 505806) and IFN-γ (BD Bioscience, 563486).
(§5) All cells were fixed after staining using Foxp3/Transcription Factor Staining Buffer Set (eBioscience, 00-5523-00) and run on a 3-laser, 12-color BD Celesta analyzer.

[11] = tested on: HDAC activity; assay: HDAC-Glo assay, percent inhibition of HDAC activity in ovarian cancer cell lines; type: cell-based, human
Protocol: HDACi enzymatic function was measured using HDACglo class I/IIa Assay (Promega, G6420). Cells were seeded in a 96-well dish and treated with 500 nM 5-azacytidine and varying levels of HDACi to determine appropriate HDACi dosage. Assay measurements were collected using SpectraMax i3x multi-mode microplate reader (Molecular Devices, USA) at the recommended wavelength. […], Givinostat, and Panobinostat (SelleckChem) were used to compare enzymatic inhibition levels of Nexturastat in each cell line. Results were analyzed according to manufacturer recommendations.

[12] = tested on: ovarian cancer cell lines; assay: CellTox Green cytotoxicity assay; type: cell-based, human; conditions: NextA dose chosen for each cell line, 5–10 uM
Protocol: Drug toxicity levels were measured using the CellTox Assay (Promega, G8741). Cells were seeded into a 96-well dish and treated with 500 nm 5-azacytidine and varying levels of HDACi to determine suitable dosage. Cells were treated with fluorescent dye and incubated for 4 days measuring cell death according to the manufacturer’s protocol. For longer treatments, cells were seeded in a 96-well place and treated with 500 nm 5-azacytidine for 4 days and then varying levels of HDACi. Cells were treated with a fluorescent dye on the fourth day and incubated to measure cell death. Assay measurements were collected using SpectraMax i3x multi-mode microplate reader (Molecular Devices, USA) at the recommended wavelength. For our analysis, TritonX (Sigma, 9002-93-1) was used as the positive control compound to simulate cell death on all […] read days. Results were analyzed according to manufacture recommendations.

[13] = tested on: MHC class I, Hey human ovarian cancer cell line; assay: MHC class I cell surface expression by flow cytometry; type: cell-based; conditions: Day 7, flow cytometry MFI
Protocol: as §1
(§6) Human ovarian cancer cells from day 7 of the protein protocol were stained for CD274 (eBioscience,12-5983-42) and MHC-I (eBioscience, 12-9983-42).
as §5

[14] = tested on: MHC class I, ID8 Trp53−/− mouse ovarian cancer cell line; assay: as above; type: cell-based; conditions: Day 7, flow cytometry MFI
Protocol: as §1
Murine ovarian cancer cell lines from day 7 of the protein protocol were stained for PD-L1/CD274 (BD Bioscience, 558091), PD-L2/CD273 (Biolegend, 107214), MHC-I (Invitrogen, 17-5958-82), and MHC-II (Invitrogen 56-5321-82).
as §5

[15] = tested on: MHC I, IGROV-1 CR and SKOV3 CR; assay: MHC I surface expression in cisplatin-resistant cell lines; type: cell-based, human; conditions: flow cytometry
Protocol: as §1, §6, §5

[16] = tested on: PD-L1; assay: PD-L1 whole-cell protein immunoblot; type: cell-based, human; conditions: IGROV-1 CR and SKOV3 CR
Protocol: as §1, §2

[17] = tested on: IGROV-1 CR; set-up: method as in PMID 29662190; conditions: read-out: cisplatin IC50; cited from earlier work
[18] = tested on: SKOV3 CR; set-up: method as in PMID 29662190; conditions: read-out: cisplatin IC50; cited from earlier work
[19] = low doses (250–500 nM), positive controls

O=C(CCCCCCNC(=O)c1cnc(N(c2ccccc2)c2ccccc2)nc1)NO [ACY1215]
survival [1]: improved survival

Nc1ncn([C@@H]2O[C@H](CO)[C@@H](O)[C@H]2O)c(=O)n1 [Aza, 5-azacytidine]
DNMT1 protein expression [2]: degrades the DNMT1 protein
expression of cytokines and interferon genes [3]: some upregulation
expression of cytokines and interferon genes [4]: upregulated CCL2 and OASL genes
expression of cytokines and interferon genes [5]: significantly increased
expression of cytokines and interferon genes [6]: significant increases
expression of cytokines and interferon genes [7]: significantly increased
ascites volume (tumor burden) ([8]; Week 7): decreased ascites volume
survival [8]: significantly increased survival
expression of cytokines and interferon genes [9]: significantly increased
M1 macrophages in ascites [10]: increase in M1 macrophages

CCN(CC)Cc1ccc2cc(COC(=O)Nc3ccc(C(=O)NO)cc3)ccc2c1 [Givinostat]
inhibition of HDAC activity [11, 19]: 100%

Cc1[nH]c2ccccc2c1CCNCc1ccc(/C=C/C(=O)NO)cc1 [LBH]
inhibition of HDAC activity [11, 19]: 100%

CCCCN(Cc1ccc(C(=O)NO)cc1)C(=O)Nc1ccccc1 [NextA, Nexturastat A]
expression of cytokines and interferon genes [3]: some upregulation
expression of cytokines and interferon genes [4]: upregulated CCL2 and OASL genes
expression of cytokines and interferon genes [5]: significantly increased
expression of cytokines and interferon genes [7]: significantly increased
survival [8]: did not
cell death [12]: no more than 20%
expression of cytokines and interferon genes [9]: significantly increased
MHC class I cell surface expression [13]: upregulated
MHC class I cell surface expression [14]: upregulated
inhibition of HDAC activity ([11]; 5 and 10 uM): 60–80%
MHC I expression [15]: increase in MHC I expression
total PD-L1 protein [16]: decrease of total PD-L1 protein
activated NK cells in ascites [10]: favoring the presence of activated NK cells

CC(/C=C/C(=O)NO)=C\[C@@H](C)C(=O)c1ccc(N(C)C)cc1 [TSA]
inhibition of HDAC activity [11, 19]: 100%

N.N.[Cl][Pt][Cl] [cisplatin]
IC50 [17]: 1500 nM
IC50 [18]: 10.4 µM
